What all share (test): NCI60 five-dose screen
What all share (format): cell-based

For one test, the system named is NCI-H23. As to conditions: Homo sapiens; NCI-H23, Non-small-Cell Lung Cancer. Here is the method: (§1) Since all new conjugates (3a–h) had notable antiproliferative activities on several tumor cell lines in the course of the one-dose screening, they were subjected to a five-dose test. […] J. Mol. Sci. 2025, 26, 11063 10 of 10 S.3. NCI60 Screening A detailed description of the NCI screening procedures can also be found on the website of NCI [39], and in our previous work. S.3.1. One-Dose Screen All candidates were examined at first at a single high dose (10 μM) in the full NCI60 cell panel. The value reported for the one-dose test is growth relative to the no-drug control and relative to the time zero number of cells. This made possible the disclosure of both growth inhibition (numbers between 0 and 100) and lethality (numbers less than 0). For example, a value of 100 means no growth inhibition. A value of 20 would mean 80% growth inhibition. A value of 0 means no net growth over the course of the analysis. A value of −20 would mean 20% lethality. A value of −100 means all cells are dead. S.3.2. […] The human tumor cell lines of the cancer screening panel were grown in RPMI 1640 medium containing 5% fetal bovine serum and 2 mM l-glutamine. Characteristically, cells were injected in 96-well microtiter plates in 0.1 mL at plating densities ranging from 5000 to 40,000 cells/well, depending on the doubling time of individual cell lines. After cell inoculation, the microtiter plates were incubated at 37 °C, 5% carbon dioxide, 95% air, and 100% relative humidity for 24 hours before the addition of tested compounds. After 24 hours, 2 plates of each cell line were fixed in situ with Cl3COOH (TCA), to represent a measurement of the cell population for each cell line at the time of drug addition (tz). Tested compounds were solubilized in DMSO at 400-fold the desired final maximum test concentration and stored frozen before application. In the course of the drug addition, an aliquot of frozen concentrate was thawed and diluted to twice the desired final maximum test concentration with a complete medium containing 50 μg mL−1 gentamicin. Additional four, 10-fold or ½ log serial dilutions were produced to furnish a total of five drug concentrations plus control. Aliquots of 0.1 mL of these different drug dilutions were added to the appropriate microtiter wells already containing 0.1 mL of medium, resulting in the required final drug concentrations. Following drug addition, the plates were incubated at 37 °C, 5% carbon dioxide, 95% air, and 100% relative humidity for an additional 48 hours. For adherent cells, the test was finished by the addition of cold Cl3COOH. Cells were fixed in situ by the addition of 50 μL of cold 50% (w/v) Cl3COOH, and incubated at 4 °C for 1 hour. The supernatant was discarded, and the plates were washed with H2O (5×) and dried in air. Sulforhodamine B (SRB) solution (0.1 mL) at 0.4% (w/v) in 1% CH3COOH was added to each well, and plates were incubated at RT for 10 min. After staining, the unbound dye was removed by washing five times with 1% CH3COOH, and the plates were dried in the air. The bound stain is afterward solubilized with a 10 mM trizma base, and the absorbance is read on an automated plate reader at λ = 515 nm. Utilizing the seven absorbance measurements [time zero (tz), control growth (c), and test growth in the presence of the drug at the five concentration levels (ti)], the percentage growth was determined at each of the drug concentration levels. Growth inhibition (%) was calculated as: [(ti − tz)/(c − tz)] × 100, for concentrations where ti ≥ tz (1) [(ti − tz)/(tz)] × 100, for concentrations where ti < tz. (2) Three dose‒response parameters were calculated as follows. GI50 (growth inhibition of 50%) was determined from Equation (3), which is the drug concentration resulting in a 50% reduction in the net protein increase (as measured by SRB staining) in control cells in the course of the drug incubation. [(ti − tz)/(c − tz)] × 100 = 50 (3)

Another test relates to RPMI-8226. As to conditions: Homo sapiens; RPMI-8226, Leukemia. As to the method: as §1
For the next test, the system named is MDA-MB-468. As to conditions: Homo sapiens; MDA-MB-468, Breast Cancer. Here is the method: as §1
The next test has as its system SW-620. As to conditions: Homo sapiens; SW-620, Colon Cancer. Here is the method: as §1
In the next test the test system is CAKI-1. The following applies: Homo sapiens; CAKI-1, Renal Cancer. As to the method: as §1
Another test relates to ACHN. The following applies: Homo sapiens, Renal Cancer. As to the method: as §1
Another test deals with OVCAR-4. As to conditions: Homo sapiens; OVCAR-4, Ovarian Cancer. As to the method:
as §1

A further test concerns EKVX. As to conditions: Homo sapiens, Non-small-Cell Lung Cancer. Here is the method: as §1
The next test deals with A549/ATCC. As to conditions: Homo sapiens, Non-small-Cell Lung Cancer. Here is the method: as §1
The test system of the next test is PC-3. The following applies: Homo sapiens; PC-3, Prostate Cancer. Here is the method: as §1
The next test relates to SK-MEL-5. The following applies: Homo sapiens; SK-MEL-5, Melanoma. As to the method: as §1
A further test relates to MOLT-4. The following applies: Homo sapiens; MOLT-4, Leukemia. Here is the method:
as §1

Another test concerns HT29. As to conditions: Homo sapiens, HT-29; HT29, Colon Cancer. As to the method:
as §1

In another test the test system is SK-OV-3. As to conditions: Homo sapiens; SK-OV-3, Ovarian Cancer. Here is the method:
as §1

For another test, the system named is CCRF-CEM. As to conditions: Homo sapiens, Leukemia. Here is the method:
as §1

A further test has as its system SNB-75. As to conditions: Homo sapiens; SNB-75, CNS Cancer. As to the method:
as §1

In the next test the test system is HCC-2998. The following applies: Homo sapiens; HCC-2998, Colon Cancer. As to the method:
as §1

The test system of a further test is SK-MEL-2. The following applies: Homo sapiens; SK-MEL-2, Melanoma. As to the method:
as §1

A further test has as its system SR. As to conditions: Homo sapiens, Leukemia. As to the method:
as §1

The subject of the next test is COLO 205. As to conditions: Homo sapiens; COLO 205, Colon Cancer. Here is the method:
as §1

The next test has as its system SF-539. As to conditions: Homo sapiens; SF-539, CNS Cancer. Here is the method: as §1
A further test has as its system OVCAR-8. As to conditions: Homo sapiens; OVCAR-8, Ovarian Cancer. Here is the method:
as §1

SMILES strings stand for the structures.

This note sets out measurements from PMC12652692, “Synthesis and In Vitro Anticancer Evaluation of Novel Phosphonium Derivatives of Chrysin” (International Journal of Molecular Sciences, 2025).

For `O=c1cc(-c2ccccc2)oc2cc(OCCCC[P+](c3ccc(F)cc3)(c3ccc(F)cc3)c3ccc(F)cc3)cc(O)c12` [3d], the GI50 is 1650 nM in the test on NCI-H23; 1310 nM with RPMI-8226; 1100 nM in the test on MDA-MB-468; 1460 nM with SW-620; 1780 nM with CAKI-1; 3230 nM with ACHN. In addition, the GI50 stood at 1640 nM with OVCAR-4; 2230 nM with EKVX; 3210 nM in the test on A549/ATCC; 1760 nM with PC-3; 1510 nM in the test with SK-MEL-5; 1900 nM in the test on MOLT-4. Moreover, the GI50 was found to be 1840 nM in the test with HT29; 1620 nM in the test with SK-OV-3; 2310 nM in the test with CCRF-CEM; 1670 nM in the test on SNB-75; 1670 nM in the test on HCC-2998; 1730 nM in the test with SK-MEL-2. The GI50 in the test on SR came to 1990 nM; in the test with COLO 205 it was 1620 nM; in the test on SF-539, 1930 nM; in the test on OVCAR-8 it was 1840 nM.

On to `Cc1ccc([P+](CCCCOc2cc(O)c3c(=O)cc(-c4ccccc4)oc3c2)(c2ccc(C)cc2)c2ccc(C)cc2)cc1` [3b], for which the GI50 amounted to 241 nM in the test with NCI-H23; 144 nM in the test on RPMI-8226; 123 nM in the test with MDA-MB-468; 354 nM in the test on SW-620; 228 nM in the test with CAKI-1; 265 nM in the test on ACHN. Also, the GI50 in the test on OVCAR-4 was found to be 247 nM; with EKVX, 275 nM; in the test on A549/ATCC it was 393 nM; with PC-3, 182 nM; in the test with SK-MEL-5 it was 153 nM; with MOLT-4, 322 nM. Further, the GI50 worked out at 855 nM in the test with HT29; 301 nM in the test with SK-OV-3; 324 nM in the test on CCRF-CEM; 219 nM in the test on SNB-75; 380 nM in the test on HCC-2998; 246 nM with SK-MEL-2. In addition, the GI50 with SR stood at 261 nM; with COLO 205, 419 nM; in the test on SF-539, 498 nM; in the test on OVCAR-8 it was 337 nM.
